Assay results published in patent publication US12145936B1, “7-Imino-5-(1H-indol-3-yl)-1,3-substituted-7,8-dihdropyrimido[4,5-d]pyrimidine-2,4(1H,3H)-dione as anti-inflammatory agents” (KING FAISAL UNIVERSITY, priority 2023, dated 2024).

What follows are molecules tested against T1, human COX-2 enzyme (Homo sapiens, UniProt P35354) (assay: Cyclooxygenases (COX-2) enzyme inhibition assay, COX (human) Inhibitor Screening Assay Kit with prostaglandin ELISA readout). Settings: 10 μM compound, in vitro, ELISA plate incubation 18 hours, read-out: % Inhibition (COX-2) Mean ± SEM.
T1 construct: purchased
T1 sequence (P35354 18-604): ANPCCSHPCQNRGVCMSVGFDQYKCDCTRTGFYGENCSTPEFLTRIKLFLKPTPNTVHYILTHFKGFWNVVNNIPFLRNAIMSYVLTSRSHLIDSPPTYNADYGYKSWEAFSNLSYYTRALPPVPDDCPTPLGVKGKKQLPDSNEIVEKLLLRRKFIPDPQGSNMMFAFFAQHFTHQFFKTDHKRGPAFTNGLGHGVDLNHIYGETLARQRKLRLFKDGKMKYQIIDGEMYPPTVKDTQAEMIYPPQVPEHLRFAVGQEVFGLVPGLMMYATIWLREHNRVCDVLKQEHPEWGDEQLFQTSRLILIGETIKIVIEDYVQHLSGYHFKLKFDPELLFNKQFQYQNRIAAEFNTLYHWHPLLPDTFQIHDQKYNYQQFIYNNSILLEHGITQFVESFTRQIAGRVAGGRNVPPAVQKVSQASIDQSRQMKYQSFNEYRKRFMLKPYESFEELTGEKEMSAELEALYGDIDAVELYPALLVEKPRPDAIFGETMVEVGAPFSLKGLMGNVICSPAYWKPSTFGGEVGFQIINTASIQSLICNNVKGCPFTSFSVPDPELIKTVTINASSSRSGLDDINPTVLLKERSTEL
Type: biochemical
Description: According to manufacturer instructions, a COX inhibition assay was performed using COX (human) Inhibitor Screening Assay Kit for the compounds 7-imino-5-(1H-indol-3-yl)-1,3-substituted-7,8-dihydropyrimido[4,5-d]pyrimidine-2,4(1H,3H)-dione derivatives (4a-c). All reagents and buffers were prepared in ultrapure water. All stock solutions of the compounds and the positive controls (Indomethacin and Celecoxib) were dissolved in DMSO. In each inhibitor sample tube, 160 μL reaction buffer, 10 μL of heme, 10 μL of diluted COX-2 enzyme, and 10 μL of the diluted inhibitor was added to get a final concentration of 100 μM. […] 10 μL of the vehicle control (DMSO) was added to the background tubes, and COX enzyme's 100% initial activity was obtained. All reaction tubes were incubated for 10 minutes at 37° C. Following this incubation, 10 μL of the substrate, arachidonic acid (AA), was added to all test tubes, mixed, and further incubated for precisely 30 seconds at 37° C. Then, 30 μL of SnCl2 solution was added to each reaction tube to stop the enzyme catalysis. All reaction tubes were removed from the incubator, vortexed, and incubated again for 5 min at room temperature. Reaction tubes were stored at 4° C. to quantify the prostaglandin formation by competitive enzyme-linked immunosorbent assay (ELISA). ELISA standards were prepared in test tubes to perform the competitive ELISA, and dilutions were prepared with the ELISA buffer. The standards, COX reaction dilutions, and background samples were serially diluted. […] Blank (to assess the background absorbance caused by Ellman's reagent) and total activity (TA) (to determine the enzymatic activity of the AChE-linked tracer) wells were left empty, 100 μL and 50 μL of the ELISA buffer were added to the nonspecific binding (NSB) and maximum binding (B0), respectively. […] Finally, the plate reading was done at a wavelength of 405 nm with a Microplate reader from BioTek (by Agilent), and data were collected using Gen5™ (by Agilent) analysis software. […]

SMILES	inhibition at 10 µM
N=c1nc(-c2c[nH]c3ccccc23)c2c(=O)[nH]c(=O)[nH]c2[nH]1 [Compound 4a, 7-Imino-5-(1H-indol-3-yl)-7,8-dihydropyrimido[4,5-d]pyrimidine-2,4(1H,3H)-dione]	23 ± 5.1%
N=c1nc(-c2c[nH]c3ccccc23)c2c(=O)[nH]c(=S)[nH]c2[nH]1 [Compound 4b, 7-Imino-5-(1H-indol-3-yl)-2-thioxo-2,3,7,8-tetrahydropyrimido[4,5-d]pyrimidin-4(1H)-one]	88 ± 2.91%
Cn1c(=O)c2c(-c3c[nH]c4ccccc34)nc(=N)[nH]c2n(C)c1=O [Compound 4c, 7-Imino-5-(1H-indol-3-yl)-1,3-dimethyl-7,8-dihydropyrimido[4,5-d]pyrimidine-2,4(1H,3H)-dione]	98 ± 1.53%
